Assay results published in patent publication US6353002B2, “Therapeutic agents” (Knoll Aktiengesellschaft, priority 1997, dated 2002).
Where a name gives a salt, the structure may show the parent alone.

Biological target: D2-like dopamine receptors (Rattus norvegicus, UniProt P61169)
Assay: Inhibition of tritiated (S)-sulpiride binding to D2-like dopamine receptors in rat striatal tissue
Conditions: ligand tritiated (S)-sulpiride 1 nM, 4° C., 40 minutes
Protocol: Striatal tissue from the brains of male Charles River CD rats weighing between 140-250 g were homogenised in ice-cold 50 mM Tris-HCl buffer (pH 7.7 when measured at 25° C.) and centrifuged at 40,000 g for 10 minutes. The pellet was resuspended in Tris salts buffer (50 mM Tris-HCl buffer containing 120 mM NaCl, 5 mM KCl, 2 mM CaCl2 and 1 mM MgCl2 with the addition of 6 mM ascorbic acid; pH 7.7 when measured at 25° C.), and again centrifuged at 40,000 g for 10 minutes. The final pellet was stored at −80° C. Before each test the pellet was resuspended in Tris salts buffer (equivalent to 2 mg wet weight of tissue/ml). […]
The filters were washed with ice-cold Tris-HCl buffer and dried. The filters were punched out in to vials, scintillation fluid added and were left for about 20 hours before being counted by scintillation spectrophotometry. The percentage displacement of specific binding of the tritiated ligand was calculated for the single concentration (10^−6M) of test compound. […] The inhibition coefficient Ki then calculated using the formula [formula] […]

Chain of D2-like dopamine receptors (P61169 whole entry): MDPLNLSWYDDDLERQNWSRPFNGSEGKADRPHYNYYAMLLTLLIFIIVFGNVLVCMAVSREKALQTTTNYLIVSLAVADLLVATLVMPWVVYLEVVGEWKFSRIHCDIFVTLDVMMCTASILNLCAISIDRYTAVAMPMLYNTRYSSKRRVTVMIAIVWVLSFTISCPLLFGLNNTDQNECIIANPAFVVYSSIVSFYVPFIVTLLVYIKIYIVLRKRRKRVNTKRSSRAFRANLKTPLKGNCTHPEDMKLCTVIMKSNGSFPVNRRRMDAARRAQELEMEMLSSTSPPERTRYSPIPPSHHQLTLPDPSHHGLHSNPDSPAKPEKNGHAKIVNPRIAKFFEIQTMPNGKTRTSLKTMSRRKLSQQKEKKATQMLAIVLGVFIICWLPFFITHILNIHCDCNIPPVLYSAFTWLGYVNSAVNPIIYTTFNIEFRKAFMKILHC

| SMILES | Ki |
| --- | --- |
| CCOC(=O)c1cc2c3c(ccc2[nH]1)OC[C@H](CNCC1CCN(c2ccccc2OC)CC1)O3 [Example 3, ethyl (S)-2,3-dihydro-2-(N-{[1-(2-methoxyphenyl)piperid-4-yl]methyl}aminomethyl)-7H-1,4-dioxino[2,3-e]indole-8-carboxylate 0.05 dichloromethane solvate] | 106 nM |

Biological target: T1, 5-HT1A receptors (Rattus norvegicus, UniProt P19327)
T1 construct: Hippocampal tissue from the brains of male Charles River CD rats; from tissue; host or cells: rat hippocampus membrane homogenate
T1 sequence (P19327 1-422): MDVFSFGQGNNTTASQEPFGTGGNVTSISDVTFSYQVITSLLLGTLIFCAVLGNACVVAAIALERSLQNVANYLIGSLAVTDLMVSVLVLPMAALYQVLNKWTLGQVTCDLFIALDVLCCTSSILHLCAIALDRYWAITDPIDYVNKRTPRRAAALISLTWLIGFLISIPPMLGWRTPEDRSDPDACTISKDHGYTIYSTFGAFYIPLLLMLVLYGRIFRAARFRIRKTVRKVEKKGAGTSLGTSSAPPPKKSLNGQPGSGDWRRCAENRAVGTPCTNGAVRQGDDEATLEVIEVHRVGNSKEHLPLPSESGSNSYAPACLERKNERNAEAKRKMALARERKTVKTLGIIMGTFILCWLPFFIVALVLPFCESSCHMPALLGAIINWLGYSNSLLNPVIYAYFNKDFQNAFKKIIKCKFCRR
Assay: Inhibition of [3H]8-OH-DPAT binding to 5-HT1A receptors in rat hippocampal tissue
Conditions: ligand [3H]8-OH-DPAT 2 nM, 25° C., 30 minutes
Protocol: Hippocampal tissue from the brains of male Charles River CD rats weighing between 150-250 g were homogenised in ice-cold 50 mM Tris-HCl buffer (pH 7.7) when measured at 25° C., 1:40 w/v) and centrifuged at 30,000 g at 4° C. for 10 minutes. The pellet was rehomogenised in the same buffer, incubated at 37° C. for 10 minutes and centrifuged at 30,000 g at 4° C. for 10 minutes. The final pellet was resuspended in 50 mM Tris-HCl buffer (pH 7.7) containing 4 mM CaCl2, 0.1% L-ascorbic acid and 10 μM pargyline hydrochloride (equivalent to 6.25 mg wet weight of tissue/ml) and used immediately in the binding assay. Aliquots (400 μl; equivalent to 2.5 mg wet weight of tissue/tube) of this suspension were added to tubes containing the ligand (50 μl; 2 nM) and distilled water (50 μl; total binding) or 5-HT (50 μl; 10 μM; non-specific binding) or test compound (50 μl; at a single concentration of 10^−8 M or at 10 concentrations ranging from 10^−11−10^−3 M). The ligand was [^3H]8-hydroxy-2-(dipropylamino)tetralin ([^3H]8-OH-DPAT) and the mixture was incubated at 25° C. for 30 minutes before the incubation was terminated by rapid filtration.
The filters were washed with ice-cold Tris-HCl buffer and dried. The filters were punched out into vials, scintillation fluid added and radioactivity determined by liquid scintillation counting. The percentage displacement of specific binding of the tritiated ligand was calculated for the single concentration (10^−6 M) of test compound. Displacement curves were then produced for those compounds which displaced ≧50% of specific binding of the tritiated ligand at 10^−6 M using a range of concentrations of the compound. The concentration which gave 50% inhibition of specific binding (IC50) was obtained from the curve. The inhibition coefficient Ki was then calculated using the formula [formula]
in which [ligand] is the concentration of the tritiated ligand used and KD is the equilibrium dissociation constant for the ligand.

| SMILES | Ki |
| --- | --- |
| COc1ccccc1N1CCC(CNC[C@H]2COc3ccc4[nH]ncc4c3O2)CC1 [Example 5, (S)-N-(2,3-dihydro-7H-1,4-dioxino[2,3-e]indazol-2-ylmethyl)-1-[1-(2-methoxyphenyl)piperid-4-yl]methylamine] | 1.2 nM |
| COc1ccccc1N1CCC(CNC[C@H]2COc3ccc4sccc4c3O2)CC1.O=C(O)/C=C/C(=O)O [Example 2, (S)-N-(2,3-dihydrothieno[3,2-f]-1,4-benzodioxin-2-ylmethyl)-1-[1-(2-methoxyphenyl)piperid-4-yl]methylamine monofumarate] | 9.7 nM |
| COc1ccccc1N1CCC(CNC[C@H]2COc3ccc4scc(Cl)c4c3O2)CC1 [Example 1, (S)-N-(9-chloro-2,3-dihydrothieno[3,2-f]-1,4-benzodioxin-2-ylmethyl)-1-[1-(2-methoxyphenyl)piperid-4-yl]methylamine 0.5 fumarate] | 36 nM |

Second part, the molecule after the results:

| Ki | SMILES |
| --- | --- |
| 1.1 nM | COc1ccccc1N1CCC(CNC[C@H]2COc3ccc4c(c3O2)OCO4)CC1 [Example 8, (S)-N-(7,8-methylenedioxy-2,3-dihydro-1,4-benzodioxin-2-ylmethyl)-1-[1-(2-methoxyphenyl)piperid-4-yl]methyl-amine monocitrate] |
| 3.6 nM | Oc1ccccc1N1CCC(CNC[C@H]2COc3ccc4occc4c3O2)CC1 [Example 7, (S)-2-{4-[(2,3-Dihydrofuro[3,2-f]-1,4-benzodioxin-2-ylmethyl)-aminomethyl]piperidino}phenol monofumarate 1.1 hydrate, 0.25 ethanol solvate] |
| 1.7 nM | COc1ccccc1N1CCC(CNC[C@H]2COc3ccc4occc4c3O2)CC1 [Example 6, (S)-N-(2,3-dihydrofuro[3,2-f]-1,4-benzodioxin-2-ylmethyl)-1-[1-(2-methoxyphenyl)piperid-4-yl]methylamine monofumarate monohydrate] |

Same assay, conditions: single concentration 10^−6 M of test compound, ligand [3H]8-OH-DPAT

| SMILES | % displacement at 10^−6 M, 5-HT1A |
| --- | --- |
| CCOC(=O)c1cc2c3c(ccc2[nH]1)OC[C@H](CNCC1CCN(c2ccccc2OC)CC1)O3 [Example 3, ethyl (S)-2,3-dihydro-2-(N-{[1-(2-methoxyphenyl)piperid-4-yl]methyl}aminomethyl)-7H-1,4-dioxino[2,3-e]indole-8-carboxylate 0.05 dichloromethane solvate] | 99% |
| COc1ccccc1N1CCC(CNC[C@H]2COc3ccc4[nH]ccc4c3O2)CC1 [Example 4, (S)-N-(2,3-dihydro-7H-1,4-dioxino[2,3-e]indol-2-ylmethyl)-1-[1-(2-methoxyphenyl)piperid-4-yl]methylamine 0.1 hydrate] | 99% |

System: not given
Assay: not given
Conditions: not given

| SMILES | melting point |
| --- | --- |
| COc1ccccc1N1CCC(CNC[C@H]2COc3ccc4[nH]ccc4c3O2)CC1 (hydrate or solvate) [Example 4, (S)-N-(2,3-dihydro-7H-1,4-dioxino[2,3-e]indol-2-ylmethyl)-1-[1-(2-methoxyphenyl)piperid-4-yl]methylamine 0.1 hydrate] | 162 to 163 °C |
| COc1ccccc1N1CCC(CNC[C@H]2COc3ccc4sccc4c3O2)CC1.O=C(O)/C=C/C(=O)O [Example 2, (S)-N-(2,3-dihydrothieno[3,2-f]-1,4-benzodioxin-2-ylmethyl)-1-[1-(2-methoxyphenyl)piperid-4-yl]methylamine monofumarate] | 180 to 182 °C |
| COc1ccccc1N1CCC(CNC[C@H]2COc3ccc4scc(Cl)c4c3O2)CC1 (as salt: fumarate) [Example 1, (S)-N-(9-chloro-2,3-dihydrothieno[3,2-f]-1,4-benzodioxin-2-ylmethyl)-1-[1-(2-methoxyphenyl)piperid-4-yl]methylamine 0.5 fumarate] | 171 to 172 °C |

Continued, values first:

| melting point | SMILES |
| --- | --- |
| 95 to 96 °C | COc1ccccc1N1CCC(CNC[C@H]2COc3ccc4occc4c3O2)CC1.O.O=C(O)/C=C/C(=O)O (hydrate or solvate) [Example 6, (S)-N-(2,3-dihydrofuro[3,2-f]-1,4-benzodioxin-2-ylmethyl)-1-[1-(2-methoxyphenyl)piperid-4-yl]methylamine monofumarate monohydrate] |
| 88 to 89 °C | Oc1ccccc1N1CCC(CNC[C@H]2COc3ccc4occc4c3O2)CC1 (as salt: fumarate) (hydrate or solvate) [Example 7, (S)-2-{4-[(2,3-Dihydrofuro[3,2-f]-1,4-benzodioxin-2-ylmethyl)-aminomethyl]piperidino}phenol monofumarate 1.1 hydrate, 0.25 ethanol solvate] |
